The text below walks through data of US10329270B2, “Heteroaryl compounds as BTK inhibitors and uses thereof” (Merck Patent GmbH, priority 2013, dated 2019).

The IC50 is the concentration that gives 50% inhibition.

Some results are limits rather than exact numbers.

This assay deals with T1, full-length human BTK (Homo sapiens, UniProt Q06187).
T1 construct: 2.5× stocks of full-length human BTK (08-080); purchased CarnaBio USA, Inc., Natick, Mass; 08-080
T1 sequence (Q06187 whole entry): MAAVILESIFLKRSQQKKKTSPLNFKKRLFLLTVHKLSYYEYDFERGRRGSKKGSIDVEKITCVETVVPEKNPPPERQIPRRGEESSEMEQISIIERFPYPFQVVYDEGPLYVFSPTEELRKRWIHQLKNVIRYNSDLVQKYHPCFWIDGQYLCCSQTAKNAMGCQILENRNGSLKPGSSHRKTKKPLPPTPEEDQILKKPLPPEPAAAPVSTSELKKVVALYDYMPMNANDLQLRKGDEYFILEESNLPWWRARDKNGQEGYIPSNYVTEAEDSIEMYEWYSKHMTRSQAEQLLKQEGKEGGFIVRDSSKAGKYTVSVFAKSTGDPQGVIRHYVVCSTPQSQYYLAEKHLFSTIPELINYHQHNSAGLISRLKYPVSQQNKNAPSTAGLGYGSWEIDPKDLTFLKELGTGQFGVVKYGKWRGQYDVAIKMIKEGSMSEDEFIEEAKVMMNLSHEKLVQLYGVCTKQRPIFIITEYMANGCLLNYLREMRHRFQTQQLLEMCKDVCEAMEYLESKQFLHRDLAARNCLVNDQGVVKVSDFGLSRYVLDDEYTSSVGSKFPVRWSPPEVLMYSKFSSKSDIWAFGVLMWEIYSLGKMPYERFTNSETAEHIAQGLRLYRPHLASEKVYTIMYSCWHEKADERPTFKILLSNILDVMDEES
Briefly: Assay A: BTK IC50 Enzyme Assay (microfluidic off-chip mobility shift kinase assay). Type of assay: biochemical. To be noted: full-length human BTK, kinKDR peptide substrate, incubated 90 min at 27 C; read-out: Assay A (Time Dependent BTK Enzyme Assay IC50). The procedure, abridged: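 Off-chip microfluidic mobility shift assay with full-length human BTK; phosphorylated and unphosphorylated peptide substrate were separated by charge/mass on a LabChip 3000.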
In the case of `C=CC(=O)NC1CCCN(c2ncc(C(N)=O)c(Oc3ccc(Oc4ccccc4)cc3)n2)C1` (stereo not shown) [Compound 204, 2-(3-acrylamidopiperidin-1-yl)-4-(4-phenoxyphenoxy)pyrimidine-5-carboxamide], the IC50 lay within 1 to 5 µM.

In the case of `C=CC(=O)N[C@@H]1CCCN(c2ccc(C(N)=O)c(Nc3ccc(C(=O)N4CCOCC4)cc3)n2)C1` [Compound 205, (R)-3-Acryloylamino-6′-[4-(morpholine-4-carbonyl)-phenylamino]-3,4,5,6-tetrahydro-2H-[1,2′]bipyridinyl-5′-carboxylic acid amide], the IC50 was below 0.1 µM.

On to `C=CC(=O)N1CCCN(c2ncc(C(N)=O)c(Oc3ccc(Oc4ccccc4)cc3)n2)CC1` [Compound 206, 2-(4-acryloyl-1,4-diazepan-1-yl)-4-(4-phenoxyphenoxy)pyrimidine-5-carboxamide], for which the IC50 fell in the range of 0.1 to 1 µM.

As for `C=CC(=O)N1C[C@@H]2CCC[C@H]1CN(c1ncc(C(N)=O)c(Oc3ccc(Oc4ccccc4)cc3)n1)C2` [Compound 208, 2-((1 S,5R)-9-acryloyl-3,9-diazabicyclo[3.3.2]decan-3-yl)-4-(4-phenoxyphenoxy)pyrimidine-5-carboxamide], the IC50 is 0.1 to 1 µM.

With `C=CC(=O)N1CCC(CNc2ncc(C(N)=O)c(Oc3ccc(Oc4ccccc4)cc3)n2)CC1` [Compound 209, 2-(((1-acryloylpiperidin-4-yl)methyl)amino)-4-(4-phenoxyphenoxy)pyrimidine-5-carboxamide], the IC50 is 0.1 to 1 µM.

`N#C/C(=C\C1CC1)C(=O)N1C[C@@H]2C[C@H]1CN2c1ncc(C(N)=O)c(Oc2ccc(Oc3ccccc3)cc2)n1` [Compound 210, 2-((1S,4S)-5-((E)-2-cyano-3-cyclopropylacryloyl)-2,5-diazabicyclo[2.2.1]heptan-2-yl)-4-(4-phenoxyphenoxy)pyrimidine-5-carboxamide]: the IC50 lay within 1 to 5 µM.

Regarding `C/C=C(\C#N)C(=O)N1C[C@@H]2C[C@H]1CN2c1ncc(C(N)=O)c(Oc2ccc(Oc3ccccc3)cc2)n1` [Compound 211, 2-((1S,4S)-5-((E)-2-cyanobut-2-enoyl)-2,5-diazabicyclo[2.2.1]heptan-2-yl)-4-(4-phenoxyphenoxy)pyrimidine-5-carboxamide], the IC50 lay in the range of 1 to 5 µM.

Consider `C=CC(=O)NC1CCN(c2cnc(Oc3ccc(Oc4cccc(F)c4)cc3)c(C(N)=O)c2)CC1` [Compound 212, 4-Acryloylamino-6′-[4-(3-fluoro-phenoxy)-phenoxy]-3,4,5,6-tetrahydro-2H-[1,3′]bipyridinyl-5′-carboxylic acid amide], for which the IC50 was 0.1 to 1 µM.

On to `C/C=C/C(=O)NC1CCCN(c2cnc(Oc3ccc(Oc4ccccc4)cc3)c(C(N)=O)c2)C1` (stereo not shown) [Compound 213, 3-((E)-But-2-enoylamino)-6′-(4-phenoxy-phenoxy)-3,4,5,6-tetrahydro-2H-[1,3′]bipyridinyl-5′-carboxylic acid amide], for which the IC50 was above 5 µM.

With `C/C=C/C(=O)NC1CCN(c2cnc(Oc3ccc(Oc4cccc(F)c4)cc3)c(C(N)=O)c2)CC1` [Compound 214, 4-((E)-But-2-enoylamino)-6′-[4-(3-fluoro-phenoxy)-phenoxy]-3,4,5,6-tetrahydro-2H-[1,3′]bipyridinyl-5′-carboxylic acid amide], the IC50 is above 5 µM.

As to `C/C=C/C(=O)N1CCCC(Nc2cnc(Oc3ccc(Oc4ccccc4)cc3)c(C(N)=O)c2)C1` (stereo not shown) [Compound 215, 5-[1-((E)-But-2-enoyl)-piperidin-3-ylamino]-2-(4-phenoxy-phenoxy)-nicotinamide], the IC50 is above 5 µM.

Consider `C=CC(=O)N1CC2CN(c3cnc(Oc4ccc(Oc5ccccc5)cc4)c(C(N)=O)c3)CC2C1` (stereo not shown) [Compound 216, 5-(5-Acryloyl-hexahydro-pyrrolo[3,4-c]pyrrol-2-yl)-2-(4-phenoxy-phenoxy)-nicotinamide], for which the half-inhibitory concentration (IC50) fell in the range of 0.1 to 1 µM.

Turning to `C/C=C/C(=O)N1CC2CN(c3cnc(Oc4ccc(Oc5ccccc5)cc4)c(C(N)=O)c3)CC2C1` (stereo not shown) [Compound 217, 5-[5-((E)-But-2-enoyl)-hexahydro-pyrrolo[3,4-c]pyrrol-2-yl]-2-(4-phenoxy-phenoxy)-nicotinamide], the IC50 is above 5 µM.
